Tests used:
[1] = Parallel artificial membrane permeation assay for blood-brain barrier (PAMPA-BBB); type: in vitro ADME, porcine; conditions: for Papp: pig, PBS:EtOH (70:30), read-out: Blood-brain barrier permeability Pe; for CNS prediction: predictive penetration in the CNS from Pe
Method: A parallel artificial membrane permeation assay for blood-brain barrier (PAMPA-BBB) was used to evaluate the brain penetration of compounds of formula I, following the method described by L. Di et al., “High throughput artificial membrane permeability assay for blood-brain barrier”, European Journal of Medicinal Chemistry 2003, vol. 38. pp. 223-232. The in vitro permeability (Pe) of the test compounds through a lipid extract of porcine brain membrane was determined. Assayed compounds were tested using a mixture of PBS:EtOH (70:30). Assay validation was made by comparing the experimental and reported permeability values of a set of fourteen commercial drugs and a lineal correlation between experimental and reported permeability values of the fourteen commercial drugs was obtained (y=1.678 x−1.447; R^2=0.9313). From this equation and taking into account the limits established by Di et al. for BBB permeation, the ranges of permeability were established, as follows. Compounds of high BBB permeation (CNS+): Pe (10^−6 cm s^−1)>5.26; compounds of low BBB permeation (CNS−): Pe (10^−6 cm s^−1)<1.91; and compounds of uncertain BBB permeation (CNS+/−): 5.26>Pe (10^−6 cm s^−1)>1.91. The permeability results are averages of three different experiments in triplicate and a predictive penetration in the CNS is also given (Table 5).

[2] = test system: primary mouse cortical neurons; assay: MTT viability assay in mouse primary cortical neurons; type: cell-based
Method: (§1) The compounds were diluted from 250 mM DMSO stocks to a 100 mM stock in DMSO. Thereafter, compounds were diluted to 100 μM, 20 μM, 5 μM, 1 μM, 0.2 μM, 0.05 μM, 0.01 μM and 0.001 μM dilution in medium, so that the final DMSO concentration in the well was 0.1% for all conditions. Stock solutions were stored at −20° C. until further use.
(§2) Isolation and treatment of primary mouse cortical neurons: Primary cortical neurons were prepared from timed pregnant wild-type C57BL/6JRccHsd mice at E16.5-E18. Animals were sacrificed by carbon dioxide and embryos were dissected in Calcium and Magnesium free Hanks Balanced Salt Solution (CMF-HBSS) containing 15 mM HEPES and 10 mM NaHCO3, pH 7.2. Embryos were decapitated, skin and skull gently removed and cortical hemispheres were separated. After removing meninges and brain stem, the cortex was isolated, chopped with a sterile razor blade in Chop solution (Hibernate-E without Calcium containing 2% B-27) and digested in 2 mg/mL papain (Worthington) dissolved in Hibernate-E without Calcium for 30 min at 30° C. Cortices were triturated for 10-15 times with a fire-polished silanized Pasteur pipette in Hibernate-E without Calcium containing 2% B-27, 0.01% DNaseI, 1 mg/mL BSA, and 1 mg/mL Ovomucoid Inhibitor. Undispersed pieces were allowed to settle by gravity for 1 min and the supernatant was centrifuged for 3 min at 228 g. The pellet was resuspended in Hibernate-E containing 2% B-27, 0.01% DNaseI, 1 mg/mL BSA, 1 mg/mL Ovomucoid Inhibitor and diluted with Hibernate-E containing 2% B-27. After the second centrifugation step (3 min at 228 g), the pellet was resuspended in nutrition medium without glutamate (Neurobasal, 2% B-27, 0.5 mM glutamine, 1% Penicillin-Streptomycin). Cells were counted in a hemacytometer and seeded in nutrition medium on poly-D-lysine pre-coated plates. Cells were cultured at 37° C.; 95% humidity and 5% CO2. All wells were handled the same way. On DIV8, cells were treated with the compounds for the evaluation of the neurotoxic effect. On DIV9, the MTT and LDH assays were performed as described below. The experiments were performed in six technical replicates for all groups per experiment.
MTT viability assay: Viability of cultures was determined on DIV9 by the MTT assay using a plate-reader (570 nm). MTT solution was added to each well in a final concentration of 0.5 mg/mL. After 2 h the MTT containing medium was aspirated. Cells were lysed in 3% SDS and the formazan crystals were dissolved in isopropanol/HCl. Optical density was measured with a plate-reader at wavelength 570 nm. Cell survival rate was expressed as optical density (OD). Values were calculated as percent of control values (vehicle control).

[3] = molecular target: T1, recombinant human sEH (hsEH) (Homo sapiens, UniProt P34913); assay: In vitro determination of sEH inhibitory activity (fluorescent PHOME assay)
T1 sequence (P34913 1-555): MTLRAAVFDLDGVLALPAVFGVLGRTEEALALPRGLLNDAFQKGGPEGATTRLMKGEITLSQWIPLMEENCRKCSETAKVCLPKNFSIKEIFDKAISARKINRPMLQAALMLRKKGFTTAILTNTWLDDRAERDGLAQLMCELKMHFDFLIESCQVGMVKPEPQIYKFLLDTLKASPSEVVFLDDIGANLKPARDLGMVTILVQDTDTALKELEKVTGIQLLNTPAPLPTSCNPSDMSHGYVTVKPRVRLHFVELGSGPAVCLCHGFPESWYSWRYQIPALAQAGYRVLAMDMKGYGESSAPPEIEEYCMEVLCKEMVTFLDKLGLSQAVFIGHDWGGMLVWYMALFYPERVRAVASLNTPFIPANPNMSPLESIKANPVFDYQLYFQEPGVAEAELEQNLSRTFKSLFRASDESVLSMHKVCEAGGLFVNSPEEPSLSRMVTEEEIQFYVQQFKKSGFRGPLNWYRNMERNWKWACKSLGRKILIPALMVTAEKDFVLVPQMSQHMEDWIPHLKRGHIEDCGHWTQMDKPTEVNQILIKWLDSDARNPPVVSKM
Method: Control compound (TPPU): N-[1-(1-Oxopropyl)-4-piperidinyl]-N′-[4-(trifluoromethoxy)phenyl]urea.
Five μL of DMSO were added to background and positive control wells, and then 5 μL of inhibitor solution were added in the inhibitor wells. Five μL of the solution of hsEH were added to the positive control and inhibitor wells and the mixture was stirred. A 1/21 dilution of the solution of PHOME with assay buffer was prepared according to the final volume required, and then 105 μL of each well were added. The plate was carefully shaken for 10 seconds and was incubated for 5 minutes at room temperature. […] The intensity of fluorescence was used to analyze and calculate the IC50 values. Results were obtained by regression analysis from at least three data points in a linear region of the curve. IC50 values are average of minimum three independent replicates.

[4] = molecular target: T2, human recombinant glutaminyl cyclase (hQC) (Homo sapiens, UniProt Q16769); assay: In vitro determination of human QC inhibitory activity (SensoLyte Green Glutaminyl Cyclase Activity Assay Kit); type: biochemical
T2 construct: purchased Eurogentec AS-72230
T2 sequence (Q16769 29-361): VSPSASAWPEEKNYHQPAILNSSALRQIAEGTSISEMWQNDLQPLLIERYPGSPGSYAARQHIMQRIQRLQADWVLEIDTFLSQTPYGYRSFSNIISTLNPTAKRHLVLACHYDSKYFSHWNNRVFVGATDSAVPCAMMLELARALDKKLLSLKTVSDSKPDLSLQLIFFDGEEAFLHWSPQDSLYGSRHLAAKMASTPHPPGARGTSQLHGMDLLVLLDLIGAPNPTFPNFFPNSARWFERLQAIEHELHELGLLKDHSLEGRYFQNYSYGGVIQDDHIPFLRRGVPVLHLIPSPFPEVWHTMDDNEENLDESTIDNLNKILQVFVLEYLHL
Method: Basic statistical analysis was performed.

[5] = test system: primary mouse cortical neurons; assay: LDH toxicity assay in mouse primary cortical neurons; type: cell-based
Method: as §1, §2
LDH toxicity assay: Supernatants of cells were subjected to the lactate dehydrogenase (LDH) toxicity assay by using the Cytotoxicity Detection Kit (Roche Diagnostics, Cat. No: 11 644 793 001). Seventy μL of cell culture supernatant was transferred to clear 96-well plates. Seventy μL freshly prepared reaction mixture was added to each well and the mixture was incubated for 20 to 30 min at room temperature protected from light. Absorbance was measured at 492 nm and 620 nm as reference wavelength. Cell death was expressed as optical density (OD). Values were calculated as percent of control values (vehicle control).

SMILES	Papp [1]	CNS prediction [1]	primary cortical neuronal cell viability, MTT ([2]; compound 0.001 μM)	primary cortical neuronal cell viability, MTT ([2]; compound 0.01 μM)	primary cortical neuronal cell viability, MTT ([2]; compound 0.05 μM)	primary cortical neuronal cell viability, MTT ([2]; compound 0.2 μM)	primary cortical neuronal cell viability, MTT ([2]; compound 1 μM)	primary cortical neuronal cell viability, MTT ([2]; compound 5 μM)	primary cortical neuronal cell viability, MTT ([2]; compound 20 μM)	primary cortical neuronal cell viability, MTT ([2]; compound 100 μM)	IC50 [3]	IC50 [4]	LDH toxicity assay (cell death), primary cortical neurons ([5]; compound 0.001 μM)	LDH toxicity assay (cell death), primary cortical neurons ([5]; compound 0.01 μM)	LDH toxicity assay (cell death), primary cortical neurons ([5]; compound 0.05 μM)	LDH toxicity assay (cell death), primary cortical neurons ([5]; compound 0.2 μM)	LDH toxicity assay (cell death), primary cortical neurons ([5]; compound 1 μM)	LDH toxicity assay (cell death), primary cortical neurons ([5]; compound 5 μM)	LDH toxicity assay (cell death), primary cortical neurons ([5]; compound 20 μM)	LDH toxicity assay (cell death), primary cortical neurons ([5]; compound 100 μM)
CCC12CC3CC(C1)CC(NC(=O)NCCCn1cncc1C)(C3)C2 [Id, 1-(3-ethyladamantan-1-yl)-3-[3-(5-methyl-1H-imidazol-1-yl)propyl]urea]	> 30 ×10⁻⁶ cm/s	CNS+ (Compounds of high BBB permeation (CNS+): Pe (10^−6 cm s^−1)>5.26)	110 % of vehicle control	107 % of vehicle control	100 % of vehicle control	99 % of vehicle control	99 % of vehicle control	93 % of vehicle control	89 % of vehicle control	53 % of vehicle control	3.3 nM	570 nM	114 % of vehicle control	104 % of vehicle control	100 % of vehicle control	100 % of vehicle control	99 % of vehicle control	102 % of vehicle control	109 % of vehicle control	157 % of vehicle control
Cc1cncn1CCCNC(=O)NC1C2CC3CC(C2)CC1C3 (centres unmarked) [Ii, 1-(adamantan-2-yl)-3-[3-(5-methyl-1H-imidazol-1-yl)propyl]urea]	> 30 ×10⁻⁶ cm/s	CNS+ (Compounds of high BBB permeation (CNS+): Pe (10^−6 cm s^−1)>5.26)	101 % of vehicle control	95 % of vehicle control	99 % of vehicle control	96 % of vehicle control	101 % of vehicle control	101 % of vehicle control	101 % of vehicle control	55 % of vehicle control	4.3 nM	189 nM	99 % of vehicle control	97 % of vehicle control	97 % of vehicle control	94 % of vehicle control	101 % of vehicle control	100 % of vehicle control	97 % of vehicle control	113 % of vehicle control
Cc1cncn1CCCNC(=O)NC12CC3CC(CC(C)(C3)O1)C2 [Ir, 1-[3-(5-methyl-1H-imidazol-1-yl)propyl]-3-(3-methyl-2-oxaadamantan-1-yl)urea]	6.9 ×10⁻⁶ cm/s	CNS+ (Compounds of high BBB permeation (CNS+): Pe (10^−6 cm s^−1)>5.26)	97 % of vehicle control	97 % of vehicle control	93 % of vehicle control	99 % of vehicle control	101 % of vehicle control	99 % of vehicle control	99 % of vehicle control	87 % of vehicle control	860 nM	139 nM	100 % of vehicle control	100 % of vehicle control	101 % of vehicle control	101 % of vehicle control	100 % of vehicle control	100 % of vehicle control	101 % of vehicle control	107 % of vehicle control
CCC12CC3CC(C1)CC(NC(=O)NCCCn1cncc1C)(C3)O2 [Is, 1-(3-ethyl-2-oxaadamantan-1-yl)-3-[3-(5-methyl-1H-imidazol-1-yl)propyl]urea]	> 30 ×10⁻⁶ cm/s	CNS+ (Compounds of high BBB permeation (CNS+): Pe (10^−6 cm s^−1)>5.26)	104 % of vehicle control	102 % of vehicle control	103 % of vehicle control	96 % of vehicle control	101 % of vehicle control	103 % of vehicle control	101 % of vehicle control	86 % of vehicle control	2800 nM	96 nM	96 % of vehicle control	97 % of vehicle control	99 % of vehicle control	98 % of vehicle control	107 % of vehicle control	102 % of vehicle control	113 % of vehicle control	107 % of vehicle control

Source: patent US20260092039A1, “DUAL INHIBITORS FOR THE TREATMENT OF ALZHEIMER'S DISEASE” (UNIVERSITAT DE BARCELONA, priority 2023, published 2026)
